Data as given in patent US20260207585A1, “METHODS AND COMPOSITIONS FOR THE TREATMENT OF PARKINSON'S DISEASE, HUNTINGTON'S DISEASE, AMYOTROPHIC LATERAL SCLEROSIS, AND LEARNING DISORDERS” (Cedars-Sinai Medical Center, priority 2022, published 2026).
Where two headings read alike, the source gives them in different places.

How the values were obtained:
[1] = target: SMYD2 (Homo sapiens, UniProt Q9NRG4); experiment: Methyltransferase inhibition panel: SMYD2; assay type: biochemical
Experimental: (§1) The ability of ETP69 to inhibit methyltransferases was tested.

[2] = target: DOT1L (Homo sapiens, UniProt Q8TEK3); experiment: Methyltransferase inhibition panel: DOT1L; assay type: biochemical
Experimental: as §1

[3] = target: T1, SET7/9 (Homo sapiens, UniProt Q8WTS6); experiment: Methyltransferase inhibition panel: SET7/9; assay type: biochemical
T1 sequence (Q8WTS6 1-366): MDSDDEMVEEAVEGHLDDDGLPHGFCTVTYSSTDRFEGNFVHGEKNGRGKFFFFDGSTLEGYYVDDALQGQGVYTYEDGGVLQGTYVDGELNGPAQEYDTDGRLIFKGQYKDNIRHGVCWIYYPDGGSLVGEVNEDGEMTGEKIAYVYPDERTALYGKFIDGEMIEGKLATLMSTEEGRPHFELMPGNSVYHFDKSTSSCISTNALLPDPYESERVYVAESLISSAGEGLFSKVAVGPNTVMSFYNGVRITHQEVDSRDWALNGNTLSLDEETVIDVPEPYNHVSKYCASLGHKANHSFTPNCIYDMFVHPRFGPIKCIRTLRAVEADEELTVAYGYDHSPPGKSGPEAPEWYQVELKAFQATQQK
Experimental: as §1

[4] = system: H3K9me3; experiment: H3K9me3 staining in cingulate/cerebral cortex and hippocampus; assay type: in vivo, mice; design: reduction of H3K9me3 IR area / reduction of hippocampal H3K9me3 levels: concentration or dose not given beside the values; conditions: for reduction of hippocampal H3K9me3 levels: 15 days after injection; for decrease in neuronal H3K9me3 irradiance: cingulate cortex; for reduction of H3K9me3 IR area: cortex
Experimental: The experimental protocol is depicted in FIG. 2A. Mice were treated with ETP69 or DMSO. After 2 days, they were tested on the color X-maze. At day 12, they were tested on the Barnes maze. On day 14, they were tested for fear conditioning. Brain tissue was isolated as depicted for analysis of H3K9me3 staining on days 4 and 15, as depicted in FIG. 2B-2D. Levels of H3K9me3 correlated with the percent of alterations at day 4 as depicted in FIG. 2E. At day 15, H3K9me3 was decreased in mice treated with ETP69 as compared to mice treated with DMSO. Levels of H3K9me3 was decreased in both the cingulate cortex and the hippocampus at 4 and 15 days (FIGS. 2J-2M).
The effects of single and repeated ETP69 injections in mice were tested. The experimental timeline is depicted in FIG. 5. Three parallel injection conditions were tested: a single ETP69 condition, a boosted ETP69 injection, and repeated ETP69 injections. The single injection mice received one injection of ETP69 or DMSO at Day 0. The mice that received a boosted injection received one injection of ETP69 or DMSO at day 0 and one injection at day 9. The mice that received repeated injections received 11 injections of ETP69 or DMSO at day 0 or day 9. Both wildtype and AD model (APP/PS1-transgenic) mice were tested.
AD+ brains were stained for neuronal H3K9me3 and DAPI. Representative images of the cingulate cortex and hippocampus of DMSO and ETP69 treated mice are depicted in FIGS. 8A and 8C, respectively. Neuronal H3K9me3 irradiance in the cingulate cortex is quantified in FIG. 8B. […] H3K9me3 staining in the DG correlated with performance in the Barnes Test, while K3K9me3 staining in the hippocampus was correlated with performance in the fear conditioning test.
The effects of ETP69 on cerebral H3K9me3 levels was tested in old mice, in both a neurodegenerative model and WT siblings. The levels of brain H3K9me3 at days 4 (short-term) and 15 (long-term) following i.p. ETP69 injection (S regimen cohorts) were measured. […] These findings indicate that a single dose of ETP69 is sufficient to sustainably reduce H3K9me3 in the brains of old WT and neurodegenerative mice. Consistent with the observations in 18-month-old mice, ETP69 mitigated neuroinflammation, including by reduced ionized calcium-binding adaptor molecule 1 (Iba-1)^+ microgliosis in neurodegenerative mice (40%, p=0.0021; FIG. 16D).

[5] = target: PRMT5 (C449S)/MEP50 (Homo sapiens, UniProt O14744, C449S); experiment: Methyltransferase inhibition panel: PRMT5 (C449S)/MEP50; assay type: biochemical
Chain of PRMT5 (C449S)/MEP50 (O14744 whole entry C449S): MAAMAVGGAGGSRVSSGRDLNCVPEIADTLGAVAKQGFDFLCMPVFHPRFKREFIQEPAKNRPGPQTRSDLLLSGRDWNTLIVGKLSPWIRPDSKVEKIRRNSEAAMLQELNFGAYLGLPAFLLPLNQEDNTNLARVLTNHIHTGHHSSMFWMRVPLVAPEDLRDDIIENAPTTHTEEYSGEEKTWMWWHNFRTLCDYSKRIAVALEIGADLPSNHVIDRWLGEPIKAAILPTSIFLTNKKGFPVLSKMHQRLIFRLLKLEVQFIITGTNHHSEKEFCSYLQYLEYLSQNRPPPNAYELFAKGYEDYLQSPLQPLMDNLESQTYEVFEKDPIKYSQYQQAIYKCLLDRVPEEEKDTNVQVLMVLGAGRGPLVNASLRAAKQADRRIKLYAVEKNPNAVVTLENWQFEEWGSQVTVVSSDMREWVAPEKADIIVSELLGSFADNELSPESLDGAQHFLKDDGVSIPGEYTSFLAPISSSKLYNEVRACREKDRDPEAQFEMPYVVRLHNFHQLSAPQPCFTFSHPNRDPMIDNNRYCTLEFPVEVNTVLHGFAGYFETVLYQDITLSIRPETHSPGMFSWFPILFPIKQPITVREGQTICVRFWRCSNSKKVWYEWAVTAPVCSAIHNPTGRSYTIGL
Chain of PRMT5 (C449S)/MEP50 (Q9BQA1 whole entry partner): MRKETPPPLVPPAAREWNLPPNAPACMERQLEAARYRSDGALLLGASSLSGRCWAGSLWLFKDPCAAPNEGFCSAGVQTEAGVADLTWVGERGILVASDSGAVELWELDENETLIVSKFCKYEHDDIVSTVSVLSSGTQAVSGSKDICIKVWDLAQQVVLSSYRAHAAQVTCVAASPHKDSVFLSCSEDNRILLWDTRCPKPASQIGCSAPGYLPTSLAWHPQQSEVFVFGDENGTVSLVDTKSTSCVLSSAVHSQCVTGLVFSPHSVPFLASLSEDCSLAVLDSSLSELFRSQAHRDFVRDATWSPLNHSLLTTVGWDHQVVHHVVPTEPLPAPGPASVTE
Experimental: as §1

[6] = target: SET1b Complex (Homo sapiens, UniProt Q9UPS6); experiment: Methyltransferase inhibition panel: SET1b Complex; assay type: biochemical
Chain of SET1b Complex (Q15291 whole entry): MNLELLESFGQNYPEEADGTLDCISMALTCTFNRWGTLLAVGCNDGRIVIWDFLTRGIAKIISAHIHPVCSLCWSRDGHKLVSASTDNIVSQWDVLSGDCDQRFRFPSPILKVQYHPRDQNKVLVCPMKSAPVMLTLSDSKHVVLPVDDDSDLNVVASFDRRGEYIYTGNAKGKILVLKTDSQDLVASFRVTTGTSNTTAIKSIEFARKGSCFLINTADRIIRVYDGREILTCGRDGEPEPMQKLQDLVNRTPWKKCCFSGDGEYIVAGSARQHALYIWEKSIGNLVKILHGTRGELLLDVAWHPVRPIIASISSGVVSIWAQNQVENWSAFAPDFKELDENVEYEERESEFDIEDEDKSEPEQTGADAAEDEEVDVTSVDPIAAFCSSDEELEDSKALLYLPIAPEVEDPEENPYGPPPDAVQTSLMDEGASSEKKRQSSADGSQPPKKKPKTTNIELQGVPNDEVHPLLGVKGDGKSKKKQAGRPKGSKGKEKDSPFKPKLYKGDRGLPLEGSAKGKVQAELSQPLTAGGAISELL
Chain of SET1b Complex (Q9UBL3 whole entry, further chain): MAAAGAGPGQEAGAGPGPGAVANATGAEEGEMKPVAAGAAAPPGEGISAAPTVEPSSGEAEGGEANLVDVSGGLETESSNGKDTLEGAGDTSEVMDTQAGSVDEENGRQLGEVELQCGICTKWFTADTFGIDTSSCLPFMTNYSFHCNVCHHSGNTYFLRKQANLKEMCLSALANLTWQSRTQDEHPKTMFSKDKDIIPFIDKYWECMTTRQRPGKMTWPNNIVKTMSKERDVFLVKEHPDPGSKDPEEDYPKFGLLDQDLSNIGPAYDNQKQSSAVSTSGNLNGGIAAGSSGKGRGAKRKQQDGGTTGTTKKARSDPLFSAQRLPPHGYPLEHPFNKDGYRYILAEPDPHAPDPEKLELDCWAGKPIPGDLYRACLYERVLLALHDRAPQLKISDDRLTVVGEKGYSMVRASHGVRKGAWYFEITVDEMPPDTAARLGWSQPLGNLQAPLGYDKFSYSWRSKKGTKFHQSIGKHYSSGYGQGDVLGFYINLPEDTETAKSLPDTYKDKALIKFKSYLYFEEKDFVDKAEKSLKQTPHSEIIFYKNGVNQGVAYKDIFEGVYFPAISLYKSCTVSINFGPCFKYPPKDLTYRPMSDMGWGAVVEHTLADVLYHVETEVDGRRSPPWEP
Chain of SET1b Complex (Q9UPS6 whole entry): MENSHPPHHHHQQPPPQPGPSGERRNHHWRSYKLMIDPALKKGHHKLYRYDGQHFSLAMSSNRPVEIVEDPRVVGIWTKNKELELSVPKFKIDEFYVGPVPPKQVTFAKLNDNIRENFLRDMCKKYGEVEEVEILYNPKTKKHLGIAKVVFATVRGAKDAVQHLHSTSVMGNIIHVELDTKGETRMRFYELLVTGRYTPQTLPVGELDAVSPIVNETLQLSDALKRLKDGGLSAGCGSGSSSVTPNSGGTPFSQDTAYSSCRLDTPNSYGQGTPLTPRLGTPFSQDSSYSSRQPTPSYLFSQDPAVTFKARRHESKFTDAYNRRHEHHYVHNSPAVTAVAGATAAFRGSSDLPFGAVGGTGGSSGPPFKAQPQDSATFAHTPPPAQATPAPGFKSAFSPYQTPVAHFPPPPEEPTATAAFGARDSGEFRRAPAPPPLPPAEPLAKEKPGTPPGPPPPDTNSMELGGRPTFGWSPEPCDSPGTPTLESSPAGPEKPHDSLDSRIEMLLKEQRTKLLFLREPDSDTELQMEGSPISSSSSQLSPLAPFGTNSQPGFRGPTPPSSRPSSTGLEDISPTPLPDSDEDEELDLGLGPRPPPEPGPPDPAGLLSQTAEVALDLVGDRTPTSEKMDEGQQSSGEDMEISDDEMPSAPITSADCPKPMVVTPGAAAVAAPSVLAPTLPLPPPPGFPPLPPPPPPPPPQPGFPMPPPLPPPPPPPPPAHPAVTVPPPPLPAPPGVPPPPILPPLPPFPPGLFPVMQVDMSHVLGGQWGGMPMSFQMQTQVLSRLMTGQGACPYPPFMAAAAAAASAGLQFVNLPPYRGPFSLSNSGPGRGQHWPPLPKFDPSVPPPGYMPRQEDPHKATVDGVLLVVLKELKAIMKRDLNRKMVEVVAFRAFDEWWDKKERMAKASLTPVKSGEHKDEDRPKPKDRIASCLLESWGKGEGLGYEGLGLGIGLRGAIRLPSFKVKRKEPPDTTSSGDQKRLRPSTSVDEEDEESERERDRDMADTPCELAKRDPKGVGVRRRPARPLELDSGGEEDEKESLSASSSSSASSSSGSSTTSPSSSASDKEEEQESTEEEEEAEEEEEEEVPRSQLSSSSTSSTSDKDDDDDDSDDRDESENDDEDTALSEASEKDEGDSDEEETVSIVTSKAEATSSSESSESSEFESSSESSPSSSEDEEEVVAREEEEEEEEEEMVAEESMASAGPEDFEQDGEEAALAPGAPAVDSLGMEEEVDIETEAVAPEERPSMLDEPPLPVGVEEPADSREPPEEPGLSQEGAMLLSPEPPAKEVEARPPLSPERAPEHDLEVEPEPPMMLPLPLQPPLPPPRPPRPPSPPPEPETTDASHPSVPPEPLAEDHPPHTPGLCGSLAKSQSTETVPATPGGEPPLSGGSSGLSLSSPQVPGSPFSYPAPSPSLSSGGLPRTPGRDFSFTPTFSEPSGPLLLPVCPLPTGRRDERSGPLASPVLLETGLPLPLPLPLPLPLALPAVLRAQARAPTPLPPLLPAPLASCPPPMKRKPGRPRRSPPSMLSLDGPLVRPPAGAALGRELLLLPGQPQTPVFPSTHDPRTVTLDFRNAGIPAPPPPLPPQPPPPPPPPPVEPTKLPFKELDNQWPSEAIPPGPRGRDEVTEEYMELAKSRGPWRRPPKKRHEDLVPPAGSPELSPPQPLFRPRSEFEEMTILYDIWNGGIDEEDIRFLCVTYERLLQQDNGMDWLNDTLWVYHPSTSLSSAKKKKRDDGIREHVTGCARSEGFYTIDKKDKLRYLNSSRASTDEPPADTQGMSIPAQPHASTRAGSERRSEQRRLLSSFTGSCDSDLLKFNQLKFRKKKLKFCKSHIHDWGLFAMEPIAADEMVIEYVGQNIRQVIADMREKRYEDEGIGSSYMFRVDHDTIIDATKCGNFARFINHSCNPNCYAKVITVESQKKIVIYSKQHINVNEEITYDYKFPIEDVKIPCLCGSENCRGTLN
Chain of SET1b Complex (Q9C005 whole entry, further chain): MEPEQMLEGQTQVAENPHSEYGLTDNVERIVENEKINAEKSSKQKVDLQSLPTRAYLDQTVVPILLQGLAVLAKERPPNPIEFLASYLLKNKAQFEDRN
Experimental: as §1

[7] = read-out: Enzyme % Activity (relative to DMSO controls) Data 1
[8] = read-out: Enzyme % Activity (relative to DMSO controls) Data 2

Chain of SMYD2 (Q9NRG4 whole entry): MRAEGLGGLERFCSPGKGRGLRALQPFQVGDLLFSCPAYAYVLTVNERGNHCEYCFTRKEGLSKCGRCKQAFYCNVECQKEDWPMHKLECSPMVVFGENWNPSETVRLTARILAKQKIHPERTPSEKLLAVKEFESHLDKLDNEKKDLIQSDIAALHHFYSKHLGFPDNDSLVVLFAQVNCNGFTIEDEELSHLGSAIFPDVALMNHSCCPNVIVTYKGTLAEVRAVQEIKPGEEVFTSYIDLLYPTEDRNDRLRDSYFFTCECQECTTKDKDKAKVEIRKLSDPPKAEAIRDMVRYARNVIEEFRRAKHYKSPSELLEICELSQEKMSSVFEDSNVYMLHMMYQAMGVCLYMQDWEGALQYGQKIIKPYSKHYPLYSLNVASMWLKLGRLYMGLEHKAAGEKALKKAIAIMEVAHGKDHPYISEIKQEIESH

## CN1C(=O)[C@@]23C[C@](C)(C#N)[C@H](c4ccc5c(c4)OCO5)N2C(=O)[C@]1(C)SS3 (racemic) [ETP69, Rac-(3S,6S,7S,8aS)-6-(benzo[d][1,3]dioxol-5-yl)-2,3,7-trimethyl-1,4-dioxohexahydro-6H-3,8a-epidithiopyrrolo[1,2-a]pyrazine-7-carbonitrile]
[1]; [7]
  remaining activity at 20 µM: 4.23%
[1]; [8]
  remaining activity at 20 µM: 4.97%
[1]; summary of Table 1
  inhibition relative to DMSO controls: at least 7500
[2]; [7]
  remaining activity at 20 µM: 104%
[2]; [8]
  remaining activity at 20 µM: 98.5%
[3]; [7]
  remaining activity at 20 µM: 107%
[3]; [8]
  remaining activity at 20 µM: 107%
[4]; CA, WT mice
  reduction of hippocampal H3K9me3 levels: 36%
[4]; CA, neurodegenerative mice
  reduction of hippocampal H3K9me3 levels: 54%
[4]; DG, neurodegenerative mice
  reduction of hippocampal H3K9me3 levels: 42%
[4]; cingulate cortex and hippocampus, 4 and 15 days
  Levels of H3K9me3: decreased
[4]; AD+ mice, day 4
  decrease in neuronal H3K9me3 irradiance: 40%
[4]; AD+ mice, day 14
  decrease in neuronal H3K9me3 irradiance: 40%
[4]; wildtype mice, day 4
  decrease in neuronal H3K9me3 irradiance: 27%
[4]; WT old mice, 4 days after single i.p. injection
  reduction of H3K9me3 IR area: 27%
[4]; neurodegenerative mice, after 15 days
  reduction of H3K9me3 IR area: 40%
[4]; neurodegenerative old mice, 4 days after single i.p. injection
  reduction of H3K9me3 IR area: 40%
[4]; day 15, vs mice treated with DMSO
  H3K9me3: decreased
[4]; hippocampus, AD+ mice, vs AD+ mice administered DMSO
  decrease in H3K9me3 irradiance: 47%
[4]; neurons, astrocytes, and microglia macrophages, AD+ mice
  H3K9 expression (H3K9me3 repression mark), cell-specific: reduced
[5]; [7]
  remaining activity at 20 µM: 121%
[5]; [8]
  remaining activity at 20 µM: 123%
[6]; [7]
  remaining activity at 20 µM: 0.6%
[6]; [8]
  remaining activity at 20 µM: 0.47%
[6]; summary of Table 1
  inhibition relative to DMSO controls: at least 7500
